Reference: patent US20120289492A1, “METHODS OF TREATING MITOCHONDRIAL DISORDERS USING METALLOPORPHYRINS” (priority 2009, published 2012)
Entries after “also recorded” stand apart in the source; their conditions may differ.

How the values were obtained:
[1] = test system: forebrain of Sod2−/− mice; experiment: Mitochondrial oxidative stress and bioenergetic indices in brain of Sod2−/− mice; assay type: in vivo
Method: To determine whether AEOL11207 decreases mitochondrial dysfunction and corrects key bioenergetic parameters in Sod2−/− mice, activity was measured of the oxidant sensitive mitochondrial enzyme, aconitase and oxidant insensitive control, fumarase, ATP, 3-nitrotyrosine (3NT), a marker of oxidative damage to proteins, reduced coenzyme A (CoASH) which assesses the mitochondrial redox state and the activity of the sodium potassium ATPase (Na+-K+ ATPase). […] FIGS. 5A-5EC illustrate attenuation of aconitase inactivation (5A), ATP depletion (5B), 3NT formation ([…]), CoASH depletion (5D) and decreased Na+-K+ ATPase activity (5E) in Sod2−/− mice by AEOL11207 (5 mg/kg, s.c. beginning PND5, n=*p<0.05, #p<0.01).
Methods:3-nitrotyrosine (3-NT) measurement by HPLC 3-NT assay are performed with HPLC equipped electrochemical detector using methods as previously described in the literature. The potentials of the electrochemical detector are set at 180/240/350/500/600/670/810/830 mV. Analyte separation is conducted on a TOSOHAAS (Montgomeryville, Pa.) reverse-phase ODS 80-TM C-18 analytical column (4.6 mm×[…]; 5 µm particle size). A two-component gradient elution system was used with component A of the mobile phase composed of 50 mM sodium acetate pH 3.2, and component B composed of 50mM sodium acetate and 40% methanol. The following gradient elution profile was used: 0-25 min, 100% A; 25-35 min, linear ramp to 50% B; 35-40 min, isocratic 50% B; 40-45 min, linear ramp to 100% A; 45-50 min, isocratic 100% A at a flow rate of 0.6 ml/min. 3-NT was expressed as a ratio of 3-NT to tyrosine.
Measurement of AMP, ADP and ATP: The levels of AMP, ADP and ATP are quantified by HPLC-UV set at 258 nm following previous described. Analyte are separated by […], […] C-18 reversed-phase column. Mobile phase is composed of 50 mM KH2PO4, 10% methanol, 3 mM TBAS and adjusted to pH 6.0 and flow rate set at 0.8 ml/min.
Aconitase and fumarase activity assay: Aconitase and fumarase activity are measured in mitochondrial fraction which isolated as previously described. Briefly, brain tissues are homogenized with a Dounce tissue grinder (Wheaton, Millville, N.J.) in ice-cold mitochondrial isolation buffer (70 mM sucrose, 210 mM mannitol, 5 mM Tris HCl, 1 mM EDTA pH 7.4). After homogenization, the suspensions are centrifuged at 800 g for 10 minutes at 4° C., and the supernatants centrifuged at 17,000 g for 10 minutes at 4° C. The pellets are washed by mitochondrial isolation buffer and centrifuged at 17,000 g for 10 minutes at 4° C. again. Aconitase activity is measured spectrophotometrically following previous described by monitoring the formation of cis-aconitate from isocitrate at 240 nm in 50 mM Tris HCl, pH 7.4, containing 0.6 mM MnCl2 at 25° C. Fumarase activity is measured by monitoring the increase in absorbance at 240 nm at 25° C. in a 1 ml reaction mixture containing 30 mM potassium phosphate, pH 7.4, 0.1 mM L-malate.
Isolation mitochondrial fraction Mitochondria were isolated from the forebrain of mice according to the previously described methods (Liang & Patel, (2006) Free Radic Biol Med 40, 316-22). In brief, the forebrain was homogenized with a Dounce tissue grinder (Wheaton, Millville, N.J.) in mitochondrial isolation buffer (70 mM sucrose, 210 mM mannitol, 5 mM Tris HCl, 1 mM EDTA; pH 7.4). The suspensions centrifuged at 800 g 4° C. for 10 min. The supernatants were centrifuged at 13000 g 4° C. for 10 min., pellets washed with mitochondrial isolation buffer and centrifuged at 13000 g 4° C. for 10 min. to obtain crude mitochondrial fractions. The purity of mitochondrial fractions has been confined by immunoblot analysis of cytochrome c oxidase (COX) (EC1.9.3.1) subunit IV and lactate dehydrogenase (LDH) (EC 1.1.1.27) in mitochondrial and cytosolic fractions. There is no mitochondria contamination in cytosolic fraction and about 5-10% cytosol contamination in mitochondrial fraction (Liang & Patel, (2006) Free Radic Biol Med 40, 316-22). […]

[2] = test system: 1-methyl-4-phenyl-1,2,3,6-tetrahydropyridine (MPTP) neurotoxicity; conditions: oral administration; cited from earlier work
[3] = Sod2−/− mice, 5 mg/kg s.c. from PND5

In the case of `COC(=O)c1c2nc(c(C(F)(F)F)c3ccc([n-]3)c(C(=O)OC)c3nc(c(C(F)(F)F)c4ccc1[n-]4)C=C3)C=C2.[Cl-].[Mn+3]` [AEOL11207], the “decreased CoASH levels” value [1, 3] is reported as “significantly attenuated”, the “increase in 3-nitrotyrosine (3NT) formation” value [1, 3] is reported as “significantly attenuated” and the “attenuation of the depletion of ATP” value ([1]; forebrain homogenates of Sod2−/− mice, 15-16 days old) is reported as 50%. The “decreased Na+-K+ ATPase activity” value ([1]; forebrain homogenates, Sod2−/− mice, 5 mg/kg s.c. from PND5, 5 mg/kg) was “significantly attenuated; also recorded: significantly restored”, the “decrease in ATP levels (ATP depletion)” value ([1]; forebrain, Sod2−/− mice, 5 mg/kg s.c. from PND5) was “significantly attenuated” and the “decrease in aconitase activity (aconitase inactivation)” value ([1]; mitochondrial fractions, Sod2−/− mice, 5 mg/kg s.c. from PND5) was “significantly attenuated”. The “protection against MPTP neurotoxicity” value [2] was “protected”.
